Measurements published in US20220348590A1, “CYCLOOXYGENASE-2 INHIBITORS AND USES THEREOF” (The Board Institute, Inc., priority 2019, published 2022).
Like-named read-outs stand apart in the source and are kept apart here.

Target: T1, human recombinant COX2 (hCOX2) (UniProt P35354)
T1 sequence (P35354 1-604): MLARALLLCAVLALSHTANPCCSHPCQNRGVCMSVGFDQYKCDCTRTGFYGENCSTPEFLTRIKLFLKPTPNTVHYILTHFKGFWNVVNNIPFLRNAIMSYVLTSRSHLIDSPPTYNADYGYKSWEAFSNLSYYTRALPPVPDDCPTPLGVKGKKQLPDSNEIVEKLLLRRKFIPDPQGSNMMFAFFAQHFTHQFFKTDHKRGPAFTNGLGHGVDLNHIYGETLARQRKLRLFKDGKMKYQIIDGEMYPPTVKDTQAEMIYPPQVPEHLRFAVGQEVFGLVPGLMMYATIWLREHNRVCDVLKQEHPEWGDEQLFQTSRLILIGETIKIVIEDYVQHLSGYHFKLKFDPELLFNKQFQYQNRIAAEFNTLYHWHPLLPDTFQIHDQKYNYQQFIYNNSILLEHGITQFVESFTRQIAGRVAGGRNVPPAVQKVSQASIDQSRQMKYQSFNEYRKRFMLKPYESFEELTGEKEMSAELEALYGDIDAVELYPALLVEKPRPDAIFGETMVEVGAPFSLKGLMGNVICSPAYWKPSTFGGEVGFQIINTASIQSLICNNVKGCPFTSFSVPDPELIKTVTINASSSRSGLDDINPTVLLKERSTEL
Assay: LCMS-based COX2 enzymatic inhibition assay (PGE2 quantification)
Type: biochemical
Design: COX2 2 minutes pge2/pge2d4 area ratio Avg; other: 2 minutes; readout pge2/pge2d4 area ratio; average; COX2 2 minutes pge2/pge2d4 area ratio Avg; LLE; average LLE; COX2 2 minutes pge2 area (counts) Avg; readout pge2 area (counts); other: 2 min; "ovine COX2 (oCOX2), human recombinant COX2 (hCOX2)"
Conditions: for IC50: average
In short: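 PGE2 formed from arachidonic acid (final 5 μM, 2 min) was measured by LC-MS-MS against DMSO controls. Enzyme (oCOX-1 0.1 μg or hCOX2 0.2 μg) with hematin/epinephrine cofactors at pH 8.0 was given 10 min at 37 °C with compound first. Twelve-point curves run three times gave IC50.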

[1] = read-out: COX2 2 minutes pge2/pge2d4 area ratio Avg. IC50 (microM), 2 minutes, readout pge2/pge2d4 area ratio
[2] = 2 minutes, readout pge2/pge2d4 area ratio, average LLE
[3] = 2 minutes, readout pge2/pge2d4 area ratio, read-out: COX2 2 minutes pge2/pge2d4 area ratio Avg. IC50
[4] = 2 minutes, readout pge2 area (counts), average LLE
[5] = 2 minutes, readout pge2 area (counts), read-out: COX2 2 minutes pge2 area (counts) Avg. IC50

| SMILES | IC50 [1] [µM] | COX2 2 minutes pge2/pge2d4 area ratio Avg. LLE [2] | IC50 [3] [µM] | COX2 2 minutes pge2 area (counts) Avg. LLE [4] | IC50 [5] [µM] | COX2 10 minutes pge2 area (counts) Avg. LLE (10 minutes, readout pge2 area (counts), average LLE) | IC50 (10 minutes, readout pge2 area (counts), read-out: COX2 10 minutes pge2 area (counts) Avg. IC50) [µM] |
| --- | --- | --- | --- | --- | --- | --- | --- |
| CS(=O)(=O)c1ccc(-n2ccc3ccc(NC(=O)c4cccs4)nc32)cc1 [Compound 311] | 5.2 |  |  |  |  |  |  |
| CS(=O)(=O)c1ccc(-c2ccc3c(n2)N(Cc2cccs2)C(=O)C3)cc1 [Compound 204] |  | 2.522 | 1.16 | 2.252 | 2.05 |  |  |
| Cc1cccc(COc2cncc(-c3ccc(S(C)(=O)=O)cc3)n2)c1 [Compound 285] | 5.2 | 2.514 |  | 2.514 |  |  |  |
| Cc1ncc(NCc2cccs2)nc1-c1ccc(S(C)(=O)=O)cc1 [Compound 103] |  | 4.751 | 0.0888 | 4.838 | 0.0733 |  |  |
| CS(=O)(=O)c1ccc(-c2cncc(OCc3nccs3)c2)cc1 [Compound 289] | 5.2 | 2.234 |  | 2.234 |  |  |  |
| CS(=O)(=O)c1ccc(-c2cncc(NCc3nccs3)n2)cc1 [Compound 203] |  | 4.216 | 1.15 | 4.434 | 0.804 |  |  |
| CS(=O)(=O)c1ccc(-c2cccc(NCc3cnco3)n2)cc1 [Compound 216] |  | 3.544 | 1.54 | 3.646 | 1.22 |  |  |
| CSc1ccc(-c2cccc(NCc3ccco3)n2)cc1 [Compound 282] | 5.2 | 1.004 |  | 1.004 |  |  |  |
| CS(=O)(=O)c1ccc(-c2ncc3ncn(Cc4cccs4)c3n2)cc1 [Compound 164] |  | 2.595 | 0.411 | 2.638 | 0.368 | 3.534 | 0.0503 |
| CS(=O)(=O)c1ccc(-c2cncc(/C=C/c3cccs3)n2)cc1 [Compound 223] |  | 2.992 | 1.86 | 2.918 | 2.24 |  |  |
| CS(=O)(=O)c1ccc(-c2cnc3ccn(Cc4cccs4)c3c2)cc1 [Compound 111] |  | 2.294 | 0.0991 | 2.242 | 0.113 |  |  |
| COc1ncc(NCc2cncs2)nc1-c1ccc(S(C)(=O)=O)cc1 [Compound 163] |  | 4.491 | 0.409 | 4.597 | 0.319 |  |  |
| CS(=O)(=O)c1ccc(-c2cncc(NCc3cncs3)n2)cc1 [Compound 201] |  | 4.51 | 1.01 | 4.612 | 0.832 |  |  |
| CS(=O)(=O)c1ccc(-c2cncc(OC[C@@H]3CCCO3)n2)cc1 [Compound 275] | 5.2 | 4.054 |  | 4.054 |  |  |  |
| CS(=O)(=O)c1ccc(-c2cncc(NCc3ccoc3)n2)cc1 [Compound 110] |  | 5.411 | 0.0984 | 5.451 | 0.0934 |  |  |
| CS(=O)(=O)c1ccc(-c2cnc(O)c(NCc3cccs3)n2)cc1 [Compound 316] | 5.2 |  |  | 3.634 |  |  |  |
| CS(=O)(=O)c1ccc(-c2cccc(Nc3ccccc3)n2)cc1 [Compound 194] |  | 2.607 | 0.883 | 2.538 | 1.04 |  |  |
| CS(=O)(=O)c1ccc(-c2cncc(SCc3ccccn3)n2)cc1 [Compound 131] |  | 5.065 | 0.157 | 5.129 | 0.131 |  |  |
| CS(=O)(=O)c1ccc(-c2cncc(NCc3ccsc3)n2)cc1 [Compound 104] |  | 4.901 | 0.0911 | 4.97 | 0.0741 |  |  |
| COc1ncc(NCc2cocn2)nc1-c1ccc(S(C)(=O)=O)cc1 [Compound 291] | 5.2 | 3.954 |  | 3.954 |  |  |  |

| SMILES | IC50 [1] [µM] | COX2 2 minutes pge2/pge2d4 area ratio Avg. LLE [2] | IC50 [3] [µM] | COX2 2 minutes pge2 area (counts) Avg. LLE [4] | IC50 [5] [µM] | COX2 10 minutes pge2 area (counts) Avg. LLE (10 minutes, readout pge2 area (counts), average LLE) | IC50 (10 minutes, readout pge2 area (counts), read-out: COX2 10 minutes pge2 area (counts) Avg. IC50) [µM] |
| --- | --- | --- | --- | --- | --- | --- | --- |
| CS(=O)(=O)c1ccc(-c2cncc(NC[C@@H]3CCCS3)n2)cc1 (single isomer, unassigned) [Compound 167] |  | 4.792 | 0.432 | 4.782 | 0.433 |  |  |
| CS(=O)(=O)c1ccc(-n2ccc3ncc(NCc4cccs4)nc32)cc1 [Compound 126] |  | 3.568 | 0.142 | 3.634 | 0.122 |  |  |
| COc1cc(S(C)(=O)=O)ccc1-c1cncc(NCc2cccs2)n1 [Compound 179] |  | 4.286 | 0.546 | 4.322 | 0.387 |  |  |
| CS(=O)(=O)c1ccc(-c2cncc(OCc3ccc(F)cc3)n2)cc1 [Compound 294] | 5.2 |  |  | 2.694 |  |  |  |
| CS(=O)(=O)c1ccc(-c2cc(NCc3ccco3)ccn2)cc1 [Compound 235] |  |  | 2.5 |  | 2.15 |  |  |
| C[C@@H](Oc1cncc(-c2ccc(S(C)(=O)=O)cc2)n1)c1cccs1 (single isomer, unassigned) [Compound 249] |  | 2.526 | 3.44 | 2.379 | 4.08 |  |  |
| CS(=O)(=O)c1ccc(-n2ccc3ccc(NCc4ccco4)nc32)cc1 [Compound 125] |  | 3.017 | 0.141 | 2.953 | 0.174 |  |  |
| CN1CC[C@H](CNc2cncc(-c3ccc(S(C)(=O)=O)cc3)n2)C1 [Compound 307] | 5.2 |  |  |  |  |  |  |
| CO/N=C(\c1ccc2ccn(-c3ccc(S(C)(=O)=O)cc3)c2n1)c1cccs1 [Compound 191] |  |  | 0.735 |  | 0.886 |  |  |
| CS(=O)(=O)c1ccc(-c2ccnc(OCc3cccs3)c2)cc1 [Compound 267] | 5.2 | 1.454 |  | 1.6998 | 2.95 |  |  |
| CS(=O)(=O)c1ccc(-c2cc(S(C)(=O)=O)cc(NCc3cccs3)n2)cc1 [Compound 268] | 5.2 | 2.624 |  | 2.624 |  |  |  |
| CC(C)CN(C)c1cncc(-c2ccc(S(C)(=O)=O)cc2)n1 [Compound 243] |  | 3.642 | 3.12 | 3.739 | 2.31 |  |  |
| COc1ncc(OCc2ccoc2)nc1-c1ccc(S(C)(=O)=O)cc1 [Compound 22] |  | 5.719 | 0.0112 | 5.729 | 0.0112 |  |  |
| C[C@@H](Oc1cccc(-c2ccc(S(C)(=O)=O)cc2)n1)c1cccs1 (single isomer, unassigned) [Compound 229] |  | 1.429 | 2.25 | 1.483 | 1.99 |  |  |
| CS(=O)(=O)c1ccc(-c2cncc(N3Cc4ccccc4C3)n2)cc1 [Compound 313] | 5.2 |  |  |  |  |  |  |
| CS(=O)(=O)c1ccc(-c2cncc(CCc3cccs3)n2)cc1 [Compound 225] |  | 3.328 | 2 | 3.249 | 2.4 |  |  |
| CS(=O)(=O)c1ccc(-c2cncc(C#Cc3cccs3)n2)cc1 [Compound 320] | 5.2 |  |  |  |  |  |  |
| COc1ncc(NCc2ccno2)nc1-c1ccc(S(C)(=O)=O)cc1 [Compound 183] |  | 5.678 | 0.566 | 5.655 | 0.596 |  |  |
| CS(=O)(=O)c1ccc(-c2cccc(NCc3ccno3)n2)cc1 [Compound 175] |  | 4.7843 | 0.508 | 4.685 | 0.638 |  |  |
